Laboratory results reported in ChEMBL document CHEMBL4804281, “STK4 inhibitors for treatment of hematologic malignancies” (2020).

Tests used:
Type in all cases: cell-based
[1] = target: Interleukin-1 receptor-associated kinase 1 (Homo sapiens) (UniProt P51617); assay: Inhibition of IRAK1 in human NCI-H929 cells at 10 uM by mass spectroscopic analysis relative to control
[2] = target: Mitogen-activated protein kinase kinase kinase 3 (Homo sapiens) (UniProt Q99759); assay: Inhibition of MAP3K3 in human NCI-H929 cells at 10 uM by mass spectroscopic analysis relative to control
[3] = target: Casein kinase I isoform epsilon (Homo sapiens) (UniProt P49674); assay: Inhibition of CK1e in human NCI-H929 cells at 10 uM by mass spectroscopic analysis relative to control
[4] = target: Casein kinase I isoform delta (Homo sapiens) (UniProt P48730); assay: Inhibition of CK1d in human NCI-H929 cells at 10 uM by mass spectroscopic analysis relative to control
[5] = target: Serine/threonine-protein kinase 24 (Homo sapiens) (UniProt Q9Y6E0); assay: Inhibition of MST3 in human NCI-H929 cells at 10 uM by mass spectroscopic analysis relative to control
[6] = target: STE20-like serine/threonine-protein kinase (Homo sapiens) (UniProt Q9H2G2); assay: Inhibition of SLK in human NCI-H929 cells at 10 uM by mass spectroscopic analysis relative to control
[7] = target: T1, Inhibitor of nuclear factor kappa-B kinase subunit epsilon (Homo sapiens) (UniProt Q14164); assay: Inhibition of IKKE in human NCI-H929 cells at 10 uM by mass spectroscopic analysis relative to control
T1 sequence (whole entry): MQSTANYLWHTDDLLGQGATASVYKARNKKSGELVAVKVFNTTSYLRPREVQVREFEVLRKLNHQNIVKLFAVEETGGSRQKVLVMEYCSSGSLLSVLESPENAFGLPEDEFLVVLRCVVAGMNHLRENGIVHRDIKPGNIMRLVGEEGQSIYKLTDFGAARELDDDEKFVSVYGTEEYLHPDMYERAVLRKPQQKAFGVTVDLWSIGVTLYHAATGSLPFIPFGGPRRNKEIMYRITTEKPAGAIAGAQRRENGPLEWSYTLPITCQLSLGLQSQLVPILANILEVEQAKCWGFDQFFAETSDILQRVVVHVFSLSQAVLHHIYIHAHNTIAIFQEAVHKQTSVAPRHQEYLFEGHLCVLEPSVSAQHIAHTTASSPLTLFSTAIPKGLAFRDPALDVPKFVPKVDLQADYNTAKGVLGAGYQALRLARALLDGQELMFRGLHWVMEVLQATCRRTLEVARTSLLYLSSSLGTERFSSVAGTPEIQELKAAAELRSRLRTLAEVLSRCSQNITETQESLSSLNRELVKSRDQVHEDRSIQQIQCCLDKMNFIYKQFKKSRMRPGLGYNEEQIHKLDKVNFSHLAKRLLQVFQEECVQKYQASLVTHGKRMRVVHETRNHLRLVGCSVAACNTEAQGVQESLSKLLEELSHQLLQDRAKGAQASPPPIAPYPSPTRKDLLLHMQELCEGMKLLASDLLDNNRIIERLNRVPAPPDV

[8] = target: NUAK family SNF1-like kinase 2 (Homo sapiens) (UniProt Q9H093); assay: Inhibition of NuaK2 in human NCI-H929 cells at 10 uM by mass spectroscopic analysis relative to control
[9] = target: Mitogen-activated protein kinase kinase kinase kinase 1 (Homo sapiens) (UniProt Q92918); assay: Inhibition of HPK1 in human NCI-H929 cells at 10 uM by mass spectroscopic analysis relative to control
[10] = target: Serine/threonine-protein kinase D2 (Homo sapiens) (UniProt Q9BZL6); assay: Inhibition of PKD2 in human NCI-H929 cells at 10 uM by mass spectroscopic analysis relative to control
[11] = target: Serine/threonine-protein kinase D3 (Homo sapiens) (UniProt O94806); assay: Inhibition of PKD3 in human NCI-H929 cells at 10 uM by mass spectroscopic analysis relative to control
[12] = target: Serine/threonine-protein kinase 10 (Homo sapiens) (UniProt O94804); assay: Inhibition of LOK in human NCI-H929 cells at 10 uM by mass spectroscopic analysis relative to control
[13] = target: Serine/threonine-protein kinase SMG1 (Homo sapiens) (UniProt Q96Q15); assay: Inhibition of SMG1 in human NCI-H929 cells at 10 uM by mass spectroscopic analysis relative to control
[14] = target: Dual specificity protein kinase CLK2 (Homo sapiens) (UniProt P49760); assay: Inhibition of CLK2 in human NCI-H929 cells at 10 uM by mass spectroscopic analysis relative to control
[15] = target: Aurora kinase A (Homo sapiens) (UniProt O14965); assay: Inhibition of AURA in human NCI-H929 cells at 10 uM by mass spectroscopic analysis relative to control
[16] = target: Ribosomal protein S6 kinase alpha-1 (Homo sapiens) (UniProt Q15418); assay: Inhibition of RSK1 domain 1 in human NCI-H929 cells at 10 uM by mass spectroscopic analysis relative to control
[17] = target: Phosphatidylinositol 5-phosphate 4-kinase type-2 alpha (Homo sapiens) (UniProt P48426); assay: Inhibition of PIP4K2A in human NCI-H929 cells at 10 uM by mass spectroscopic analysis relative to control
[18] = target: Cyclin-dependent kinase 18 (Homo sapiens) (UniProt Q07002); assay: Inhibition of PCTAIRE3 in human NCI-H929 cells at 10 uM by mass spectroscopic analysis relative to control
[19] = target: Dual specificity mitogen-activated protein kinase kinase 2 (Homo sapiens) (UniProt P36507); assay: Inhibition of MAP2K2 in human NCI-H929 cells at 10 uM by mass spectroscopic analysis relative to control
[20] = target: Scaffold protein ILK (Homo sapiens) (UniProt Q13418); assay: Inhibition of ILK in human NCI-H929 cells at 10 uM by mass spectroscopic analysis relative to control
[21] = target: Mitogen-activated protein kinase kinase kinase kinase 5 (Homo sapiens) (UniProt Q9Y4K4); assay: Inhibition of KHS1 in human NCI-H929 cells at 10 uM by mass spectroscopic analysis relative to control
[22] = target: Activin receptor type-1 (Homo sapiens) (UniProt Q04771); assay: Inhibition of ALK2 in human NCI-H929 cells at 10 uM by mass spectroscopic analysis relative to control
[23] = target: Casein kinase I isoform gamma-2 (Homo sapiens) (UniProt P78368); assay: Inhibition of CK1g2 in human NCI-H929 cells at 10 uM by mass spectroscopic analysis relative to control
[24] = target: Activin receptor type-1B (Homo sapiens) (UniProt P36896); assay: Inhibition of ALK4 in human NCI-H929 cells at 10 uM by mass spectroscopic analysis relative to control
[25] = target: Activin receptor type-1C (Homo sapiens) (UniProt Q8NER5); assay: Inhibition of ALK7 in human NCI-H929 cells at 10 uM by mass spectroscopic analysis relative to control

Chain of Cyclin-dependent kinase 18 (Homo sapiens) (Q07002 whole entry): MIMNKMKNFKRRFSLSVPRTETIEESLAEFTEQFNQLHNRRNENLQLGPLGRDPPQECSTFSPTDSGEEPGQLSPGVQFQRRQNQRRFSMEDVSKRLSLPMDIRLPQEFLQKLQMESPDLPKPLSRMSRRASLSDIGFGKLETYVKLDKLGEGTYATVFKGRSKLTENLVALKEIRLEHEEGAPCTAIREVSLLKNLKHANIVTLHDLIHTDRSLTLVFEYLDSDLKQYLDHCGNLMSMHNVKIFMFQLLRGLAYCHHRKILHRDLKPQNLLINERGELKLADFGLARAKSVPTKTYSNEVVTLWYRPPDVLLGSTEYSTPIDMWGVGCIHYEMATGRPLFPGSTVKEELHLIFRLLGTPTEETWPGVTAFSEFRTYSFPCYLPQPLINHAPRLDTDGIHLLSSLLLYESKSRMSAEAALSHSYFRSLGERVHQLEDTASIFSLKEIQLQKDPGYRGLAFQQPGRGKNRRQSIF
Chain of Dual specificity mitogen-activated protein kinase kinase 2 (Homo sapiens) (P36507 whole entry): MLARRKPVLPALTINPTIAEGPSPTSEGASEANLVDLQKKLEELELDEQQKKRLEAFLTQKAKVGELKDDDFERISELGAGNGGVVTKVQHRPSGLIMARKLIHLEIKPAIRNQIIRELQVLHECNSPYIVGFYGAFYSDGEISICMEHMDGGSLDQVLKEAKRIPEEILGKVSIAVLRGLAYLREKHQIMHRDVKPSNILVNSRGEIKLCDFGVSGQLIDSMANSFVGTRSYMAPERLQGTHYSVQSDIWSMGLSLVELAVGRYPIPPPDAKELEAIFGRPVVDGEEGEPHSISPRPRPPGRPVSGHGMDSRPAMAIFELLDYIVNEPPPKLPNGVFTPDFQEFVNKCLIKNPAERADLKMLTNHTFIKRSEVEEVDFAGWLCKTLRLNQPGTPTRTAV
Chain of Serine/threonine-protein kinase D2 (Homo sapiens) (Q9BZL6 whole entry): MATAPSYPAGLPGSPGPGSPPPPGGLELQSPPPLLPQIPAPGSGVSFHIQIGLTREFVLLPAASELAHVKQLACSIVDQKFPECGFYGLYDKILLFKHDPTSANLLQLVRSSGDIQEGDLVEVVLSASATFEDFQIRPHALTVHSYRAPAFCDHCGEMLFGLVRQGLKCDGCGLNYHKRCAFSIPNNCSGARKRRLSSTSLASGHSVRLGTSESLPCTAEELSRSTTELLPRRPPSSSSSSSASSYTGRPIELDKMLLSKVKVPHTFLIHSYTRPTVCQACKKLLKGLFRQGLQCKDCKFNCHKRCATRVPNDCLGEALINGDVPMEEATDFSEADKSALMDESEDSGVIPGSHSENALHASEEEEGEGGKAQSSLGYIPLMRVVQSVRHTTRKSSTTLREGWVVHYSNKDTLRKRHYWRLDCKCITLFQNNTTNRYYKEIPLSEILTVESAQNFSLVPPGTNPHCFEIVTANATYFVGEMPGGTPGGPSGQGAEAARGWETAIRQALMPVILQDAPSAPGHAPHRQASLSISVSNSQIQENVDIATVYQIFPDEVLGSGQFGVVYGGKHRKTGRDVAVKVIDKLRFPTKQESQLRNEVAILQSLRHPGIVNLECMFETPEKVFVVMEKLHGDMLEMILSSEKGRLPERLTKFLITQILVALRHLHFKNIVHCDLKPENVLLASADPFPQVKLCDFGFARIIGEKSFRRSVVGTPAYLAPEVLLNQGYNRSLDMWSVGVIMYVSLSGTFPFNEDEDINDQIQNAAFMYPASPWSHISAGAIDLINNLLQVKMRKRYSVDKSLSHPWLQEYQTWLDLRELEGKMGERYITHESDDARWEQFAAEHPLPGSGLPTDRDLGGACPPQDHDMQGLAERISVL
Chain of Ribosomal protein S6 kinase alpha-1 (Homo sapiens) (Q15418 whole entry, the tested form may be a part): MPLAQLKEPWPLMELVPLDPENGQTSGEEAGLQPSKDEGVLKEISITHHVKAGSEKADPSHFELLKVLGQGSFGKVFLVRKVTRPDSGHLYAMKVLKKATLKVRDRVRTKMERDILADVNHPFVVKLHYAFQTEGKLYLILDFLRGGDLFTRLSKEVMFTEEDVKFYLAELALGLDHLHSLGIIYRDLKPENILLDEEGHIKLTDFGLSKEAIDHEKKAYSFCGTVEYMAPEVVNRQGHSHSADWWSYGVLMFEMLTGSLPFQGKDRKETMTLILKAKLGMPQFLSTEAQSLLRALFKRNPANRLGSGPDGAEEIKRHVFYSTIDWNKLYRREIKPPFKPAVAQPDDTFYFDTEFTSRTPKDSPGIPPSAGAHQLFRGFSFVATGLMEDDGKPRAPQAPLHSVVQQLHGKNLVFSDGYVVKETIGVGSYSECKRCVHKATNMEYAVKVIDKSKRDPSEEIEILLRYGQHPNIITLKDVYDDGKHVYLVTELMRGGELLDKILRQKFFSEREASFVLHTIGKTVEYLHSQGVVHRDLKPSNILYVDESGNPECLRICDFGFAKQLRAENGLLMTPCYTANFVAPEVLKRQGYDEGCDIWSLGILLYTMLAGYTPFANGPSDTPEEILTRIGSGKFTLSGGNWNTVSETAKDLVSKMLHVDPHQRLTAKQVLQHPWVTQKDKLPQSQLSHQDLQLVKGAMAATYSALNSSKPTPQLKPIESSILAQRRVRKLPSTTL
Chain of Serine/threonine-protein kinase 10 (Homo sapiens) (O94804 whole entry, looked up): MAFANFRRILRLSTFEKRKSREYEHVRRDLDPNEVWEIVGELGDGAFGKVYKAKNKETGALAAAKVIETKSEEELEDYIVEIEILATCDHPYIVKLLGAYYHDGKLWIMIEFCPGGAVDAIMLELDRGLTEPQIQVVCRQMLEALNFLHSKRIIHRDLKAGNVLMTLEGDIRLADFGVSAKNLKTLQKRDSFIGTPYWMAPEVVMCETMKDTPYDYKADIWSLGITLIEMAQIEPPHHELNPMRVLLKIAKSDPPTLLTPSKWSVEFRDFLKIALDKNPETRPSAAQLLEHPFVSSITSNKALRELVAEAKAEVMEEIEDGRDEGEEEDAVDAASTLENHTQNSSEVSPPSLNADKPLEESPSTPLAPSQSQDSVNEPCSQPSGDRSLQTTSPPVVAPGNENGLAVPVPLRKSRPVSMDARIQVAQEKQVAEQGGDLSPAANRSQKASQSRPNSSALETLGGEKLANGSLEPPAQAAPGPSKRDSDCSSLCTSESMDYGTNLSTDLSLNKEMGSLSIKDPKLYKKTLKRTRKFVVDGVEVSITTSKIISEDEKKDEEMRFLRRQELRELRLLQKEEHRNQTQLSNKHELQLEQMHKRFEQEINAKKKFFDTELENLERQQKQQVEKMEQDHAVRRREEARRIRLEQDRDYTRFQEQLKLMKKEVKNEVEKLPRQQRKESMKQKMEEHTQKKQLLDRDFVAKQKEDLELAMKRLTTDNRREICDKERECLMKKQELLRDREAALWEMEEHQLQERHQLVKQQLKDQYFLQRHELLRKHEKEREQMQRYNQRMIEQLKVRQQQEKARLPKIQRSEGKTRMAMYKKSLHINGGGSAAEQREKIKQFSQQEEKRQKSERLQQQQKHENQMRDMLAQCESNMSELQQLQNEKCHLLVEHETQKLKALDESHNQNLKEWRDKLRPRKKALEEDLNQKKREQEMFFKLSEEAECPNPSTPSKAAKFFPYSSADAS
Chain of NUAK family SNF1-like kinase 2 (Homo sapiens) (Q9H093 whole entry): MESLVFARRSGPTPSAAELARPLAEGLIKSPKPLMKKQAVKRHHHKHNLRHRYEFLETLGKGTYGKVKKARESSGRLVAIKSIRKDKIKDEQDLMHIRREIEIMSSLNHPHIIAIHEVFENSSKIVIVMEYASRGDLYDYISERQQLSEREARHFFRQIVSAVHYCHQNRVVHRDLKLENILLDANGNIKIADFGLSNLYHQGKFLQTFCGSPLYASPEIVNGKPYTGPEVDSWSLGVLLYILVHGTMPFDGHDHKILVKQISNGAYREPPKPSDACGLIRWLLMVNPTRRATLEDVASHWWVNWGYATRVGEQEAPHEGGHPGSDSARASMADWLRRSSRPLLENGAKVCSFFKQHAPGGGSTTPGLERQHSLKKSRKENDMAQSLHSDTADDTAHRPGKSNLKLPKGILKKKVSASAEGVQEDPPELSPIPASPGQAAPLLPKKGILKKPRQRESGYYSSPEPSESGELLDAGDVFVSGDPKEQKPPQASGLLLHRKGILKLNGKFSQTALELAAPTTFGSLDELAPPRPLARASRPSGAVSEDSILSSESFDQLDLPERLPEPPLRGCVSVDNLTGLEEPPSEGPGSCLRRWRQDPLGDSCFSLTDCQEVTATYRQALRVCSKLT
Chain of Serine/threonine-protein kinase D3 (Homo sapiens) (O94806 whole entry): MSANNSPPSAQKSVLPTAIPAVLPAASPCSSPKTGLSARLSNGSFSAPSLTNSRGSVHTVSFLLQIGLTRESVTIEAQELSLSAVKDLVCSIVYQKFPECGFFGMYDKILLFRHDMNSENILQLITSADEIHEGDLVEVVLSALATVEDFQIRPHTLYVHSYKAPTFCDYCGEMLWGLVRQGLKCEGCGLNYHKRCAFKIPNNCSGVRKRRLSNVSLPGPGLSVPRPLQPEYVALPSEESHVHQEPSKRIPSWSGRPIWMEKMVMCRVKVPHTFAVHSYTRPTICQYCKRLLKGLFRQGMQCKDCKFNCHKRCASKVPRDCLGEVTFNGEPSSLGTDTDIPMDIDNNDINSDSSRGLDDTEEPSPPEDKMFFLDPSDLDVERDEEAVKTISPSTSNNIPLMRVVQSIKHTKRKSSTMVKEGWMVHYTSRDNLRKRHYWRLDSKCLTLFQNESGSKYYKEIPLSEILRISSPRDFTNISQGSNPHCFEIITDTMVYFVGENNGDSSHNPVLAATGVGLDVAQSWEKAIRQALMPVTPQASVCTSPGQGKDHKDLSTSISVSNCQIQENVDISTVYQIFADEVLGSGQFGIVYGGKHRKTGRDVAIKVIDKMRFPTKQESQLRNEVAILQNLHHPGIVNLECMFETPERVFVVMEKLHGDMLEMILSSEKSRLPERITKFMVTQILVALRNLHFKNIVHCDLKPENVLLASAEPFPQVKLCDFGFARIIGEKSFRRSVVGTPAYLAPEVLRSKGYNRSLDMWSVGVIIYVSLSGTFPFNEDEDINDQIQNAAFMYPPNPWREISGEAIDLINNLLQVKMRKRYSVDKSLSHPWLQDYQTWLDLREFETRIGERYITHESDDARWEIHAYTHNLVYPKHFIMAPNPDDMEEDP

inhibition [1] | inhibition [2] | inhibition [3] | inhibition [4] | inhibition [5] | inhibition [6] | inhibition [7] | inhibition [8] | inhibition [9] | inhibition [10] | inhibition [11] | inhibition [12] | inhibition [13] | inhibition [14] | inhibition [15] | inhibition [16] | inhibition [18] | inhibition [19] | inhibition [21] | inhibition [22] | Structure (SMILES) | further results
50% | 0% | 50% | 50% | 50% | 50% | 0% | – | – | – | – | – | – | – | – | – | – | – | – | – | CN(C1CC1)S(=O)(=O)c1ccc(-c2cnc(N)c(-c3ccc4c(c3)CCNC4=O)c2)c(F)c1 | –
– | 0% | – | – | – | – | 0% | 50% | 50% | 50% | 50% | 50% | 50% | – | – | – | – | – | – | – | Nc1ncc(-c2cccc3ncsc23)cc1-c1ccc2c(c1)CCNC2=O | –
– | – | > 90% | > 90% | – | – | 0% | – | – | – | – | – | – | 0% | < 90% | < 75% | – | – | – | – | Nc1ncc(-c2cccc([N+](=O)[O-])c2F)cc1-c1ccc2c(c1)CCNC2=O | –
0% | – | – | – | – | 50% | 0% | 0% | 0% | 50% | 0% | 0% | – | – | – | – | 0% | 0% | 0% | 75% | COc1cc(NS(=O)(=O)C2CC2)ccc1-c1cnc(N)c(-c2ccc3c(c2)CCNC3=O)c1 | inhibition [17]: > 90%; inhibition [20]: 50%; inhibition [23]: 75%; inhibition [24]: 75%; inhibition [25]: 75%
– | – | – | – | > 90% | – | – | – | – | – | – | – | 50% | 50% | – | < 75% | 0% | 0% | 50% | > 90% | Nc1ncc(-c2ccc(NS(=O)(=O)C3CC3)cc2OC2CCCCC2)cc1-c1ccc2c(c1)CCNC2=O | inhibition [23]: 50%; inhibition [24]: > 90%; inhibition [25]: > 90%
– | – | – | – | – | – | 0% | – | – | – | – | – | – | – | < 75% | – | 0% | 0% | – | – | Nc1ncc(-c2ccc(NS(=O)(=O)C3CC3)cc2F)cc1-c1ccc2c(c1)CCNC2=O | –
